# Assay results taken from ChEMBL document CHEMBL5523719, “Structure-activity relationship study of new carbazole sulfonamide derivatives as anticancer agents with dual-target mechanism” (Eur J Med Chem, 2024).
# Calls of active or inactive are those of the source. The rule behind the calls is not given here.
# Columns and labels:
# MCF7 [1] = assay: Induction of cell cycle arrest in human MCF7 cells assessed as accumulation of cells at G2/M phase at 25 nM measured after 24 hrs by flow cytometry (reference value: 22.84%); format: functional
# MCF7 [2] = assay: Induction of apoptosis in human MCF7 cells assessed as viable cells at 25 nM measured after 48 hrs by AnnexinV/PI double staining assays (reference value: 91.20%); format: functional; settings: read-out: Activity
# MCF7 [3] = assay: Induction of apoptosis in human MCF7 cells assessed as early apoptotic cells at 50 nM measured after 48 hrs by AnnexinV/PI double staining assays (reference value: 5.32%); format: functional
# MCF7 [4] = assay: Induction of apoptosis in human MCF7 cells assessed as necrotic cells at 25 nM measured after 48 hrs by AnnexinV/PI double staining assays (reference value: 0.89%); format: functional
# Tubulin (Homo sapiens) [5] = biological target: T1, Tubulin (Homo sapiens) (UniProt P68371+Q9H4B7+P0DPH7+P68366+Q13509+Q71U36+P04350+Q3ZCM7+P07437+P68363+Q9BQE3+Q6PEY2+Q13885+Q9BVA1+Q9BUF5); assay: In vitro inhibition of microtubule (unknown origin) assembly at 10 uM; format: protein-complex assay
# NCI-H460 = assay: Antiproliferation activity against human NCI-H460 cells measured after 72 hrs incubation by MTT assay; format: functional, cell-based; settings: NCI-H460, 72 h
# NCI/ADR-RES = assay: Antiproliferation activity against human MCF7/ADR cells measured after 72 hrs incubation by MTT assay; format: functional, cell-based
# MCF7 [6] = assay: Induction of apoptosis in human MCF7 cells assessed as viable cells at 6.25 nM measured after 48 hrs by AnnexinV/PI double staining assays (reference value: 91.20%); format: functional; settings: read-out: Activity
# Tubulin (Homo sapiens) [7] = biological target: T1, Tubulin (Homo sapiens); assay: Inhibition of microtubule assembly in human MCF7 cells assessed as disrupted microtubule network at 50 uM measured after 24 hrs incubation by anti-alpha-tubulin antibody (green) and Hoechst 33342 (blue) stained nuclei were obtained under microscopy; format: cell-based
# MCF7 [8] = assay: Induction of apoptosis in human MCF7 cells assessed as early apoptotic cells at 12.5 nM measured after 48 hrs by AnnexinV/PI double staining assays (reference value: 5.32%); format: functional
# KB = assay: Antiproliferation activity against human KB cells measured after 72 hrs incubation by MTT assay; format: functional, cell-based
# MDA-MB-231 = assay: Antiproliferation activity against human MDA-MB-231 cells measured after 72 hrs incubation by MTT assay; format: functional, cell-based; settings: MDA-MB-231, 72 h
# MCF7 [9] = assay: Induction of apoptosis in human MCF7 cells assessed as viable cells at 12.5 nM measured after 48 hrs by AnnexinV/PI double staining assays (reference value: 91.20%); format: functional; settings: read-out: Activity
# MCF7 [10] = assay: Induction of apoptosis in human MCF7 cells assessed as early apoptotic cells at 25 nM measured after 48 hrs by AnnexinV/PI double staining assays (reference value: 5.32%); format: functional
# MCF7 [11] = assay: Induction of cell cycle arrest in human MCF7 cells assessed as accumulation of cells at G0/G1 phase at 100 nM measured after 24 hrs by flow cytometry (reference value: 61.73%); format: functional
# [12] = biological target: Tubulin beta (Homo sapiens) (UniProt P68371+Q9H4B7+Q13509+P04350+Q3ZCM7+P07437+Q13885+Q9BVA1+Q9BUF5+A6NNZ2); assay: Binding affinity to beta-tubulin colchicine binding site in human MCF7 cells assessed as inhibition of EBI-beta-tubulin adduct band formation preincubated for 2 hrs followed by EBI addition measured after 2 hrs by EBI competition based Western blotting analysis; format: cell-based; settings: dose 12.5-100 nM
# HMEC-1 [13] = assay: Anti-proliferative activity against human HMEC-1 cells measured after 48 hrs; format: functional, cell-based; settings: HMEC-1, 48 h
# MIA PaCa-2 = assay: Antiproliferation activity against human MIA PaCa-2 cells measured after 72 hrs incubation by MTT assay; format: functional, cell-based; settings: MIA PaCa-2, 72 h
# MCF7 [14] = assay: Induction of cell cycle arrest in human MCF7 cells assessed as accumulation of cells at G0/G1 phase at 25 nM measured after 24 hrs by flow cytometry (reference value: 61.73%); format: functional
# MCF7 [15] = assay: Induction of cell cycle arrest in human MCF7 cells assessed as accumulation of cells at G2/M phase at 100 nM measured after 24 hrs by flow cytometry (reference value: 22.84%); format: functional
# MCF7 [16] = assay: Induction of apoptosis in human MCF7 cells assessed as late apoptotic cells at 12.5 nM measured after 48 hrs by AnnexinV/PI double staining assays (reference value: 2.60%); format: functional
# MCF7 [17] = assay: Induction of apoptosis in human MCF7 cells assessed as early apoptotic cells at 6.25 nM measured after 48 hrs by AnnexinV/PI double staining assays (reference value: 5.32%); format: functional
# MCF7 [18] = assay: Induction of apoptosis in human MCF7 cells assessed as necrotic cells at 50 nM measured after 48 hrs by AnnexinV/PI double staining assays (reference value: 0.89%); format: functional
# MCF7 [19] = assay: Induction of apoptosis in human MCF7 cells assessed as viable cells at 50 nM measured after 48 hrs by AnnexinV/PI double staining assays (reference value: 91.20%); format: functional; settings: read-out: Activity
# L02 = assay: Antiproliferation activity against human L02 cells measured after 72 hrs incubation by MTT assay; format: functional, cell-based; settings: L02, 72 h
# MCF7 [20] = assay: Induction of apoptosis in human MCF7 cells assessed as necrotic cells at 6.25 nM measured after 48 hrs by AnnexinV/PI double staining assays (reference value: 0.89%); format: functional
# MCF7 [21] = assay: Induction of apoptosis in human MCF7 cells assessed as late apoptotic cells at 50 nM measured after 48 hrs by AnnexinV/PI double staining assays (reference value: 2.60%); format: functional
# MCF7 [22] = assay: Induction of cell cycle arrest in human MCF7 cells assessed as increase in cyclin B1 protein expression at […] by Western blot analysis; format: functional, cell-based; settings: dose lower 6.25 µM
# MCF7 [23] = assay: Induction of cell cycle arrest in human MCF7 cells assessed as accumulation of cells at G0/G1 phase at 4 nM measured after 24 hrs by flow cytometry (reference value: 61.73%); format: functional
# MCF7 [24] = assay: Induction of apoptosis in human MCF7 cells assessed as late apoptotic cells at 25 nM measured after 48 hrs by AnnexinV/PI double staining assays (reference value: 2.60%); format: functional
# HMEC-1 [25] = assay: Angiogenic activity against human HMEC-1 cells assessed as decrease in vascular area measured after 48 hrs by Endothelial tube formation assay; format: functional, cell-based; settings: dose 1-100 nM
# MCF7 [26] = assay: Induction of cell cycle arrest in human MCF7 cells assessed as increase in phosphorylation of histone H3 at […] by Western blot analysis; format: functional, cell-based; settings: dose lower 6.25 µM
# MCF7 [27] = assay: Antiproliferation activity against human MCF7 cells measured after 72 hrs incubation by MTT assay; format: functional, cell-based; settings: MCF7, 72 h
# MCF7 [28] = assay: Induction of apoptosis in human MCF7 cells assessed as karyorrhexis at 5 nM measured after 24 hrs by fluorescent microscopy; format: functional
# MCF7 [29] = assay: Induction of apoptosis in human MCF7 cells assessed as multinuclear cells at 5 nM measured after 24 hrs by fluorescent microscopy; format: functional
# HMEC-1 [30] = assay: Anti-migration activity in human HMEC-1 cells assessed as inhibition of cell migration at 5 nM measured after 48 hrs by Scratching assay; format: functional, cell-based
# Tubulin (Homo sapiens) [31] = biological target: T1, Tubulin (Homo sapiens); assay: Inhibition of microtubule assembly in human HepG2 cells assessed as disrupted microtubule network at 50 uM measured after 24 hrs incubation by anti-alpha-tubulin antibody (green) and Hoechst 33342 (blue) stained nuclei were obtained under microscopy; format: cell-based
# MCF7 [32] = assay: Induction of cell cycle arrest in human MCF7 cells assessed as accumulation of cells at G0/G1 phase at 500 nM measured after 24 hrs by flow cytometry (reference value: 61.73%); format: functional
# MCF7 [33] = assay: Induction of cell cycle arrest in human MCF7 cells assessed as accumulation of cells at G2/M phase at 4 nM measured after 24 hrs by flow cytometry (reference value: 22.84%); format: functional
# MCF7 [34] = assay: Induction of apoptosis in human MCF7 cells assessed as necrotic cells at 12.5 nM measured after 48 hrs by AnnexinV/PI double staining assays (reference value: 0.89%); format: functional
# MCF7 [35] = assay: Induction of apoptosis in human MCF7 cells assessed as late apoptotic cells at 6.25 nM measured after 48 hrs by AnnexinV/PI double staining assays (reference value: 2.60%); format: functional
# MCF7 [36] = assay: Induction of cell cycle arrest in human MCF7 cells assessed as accumulation of cells at G2/M phase at 500 nM measured after 24 hrs by flow cytometry (reference value: 22.84%); format: functional
smiles,measurement,setting,value
COc1cc(NS(=O)(=O)c2ccc3c(c2)c2ccc(O)cc2n3C)c(OC)cc1Cl,Activity,MCF7 [1],17.8%
same,viability at 0.025 µM,MCF7 [2],36.8%
same,Activity,MCF7 [3],42.87%
same,Activity,MCF7 [4],0.06%
same,inhibition,Tubulin (Homo sapiens) [5],Active
same,IC50,NCI-H460,12.4 nM
same,IC50,NCI/ADR-RES,7.56 nM
same,viability at 0.00625 µM,MCF7 [6],56.2%
same,inhibition,Tubulin (Homo sapiens) [7],Active
same,Activity,MCF7 [8],43.24%
same,IC50,KB,9.37 nM
same,IC50,MDA-MB-231,5.19 nM
same,viability at 0.0125 µM,MCF7 [9],49.2%
same,Activity,MCF7 [10],49.44%
same,Activity,MCF7 [11],3.93%
same,Activity,[12],Active
same,IC50,HMEC-1 [13],6.42 nM
same,IC50,MIA PaCa-2,0.81 nM
same,Activity,MCF7 [14],6.65%
same,Activity,MCF7 [15],17.8%
same,Activity,MCF7 [16],7.54%
same,Activity,MCF7 [17],34.89%
same,Activity,MCF7 [18],0.07%
same,viability at 0.05 µM,MCF7 [19],46.3%
same,IC50,L02,53.7 nM
same,Activity,MCF7 [20],0.05%
same,Activity,MCF7 [21],10.8%
same,Activity,MCF7 [22],Dose-Dependent Effect
same,Activity,MCF7 [23],37.05%
same,Activity,MCF7 [24],13.75%
same,Activity,HMEC-1 [25],Dose-Dependent Effect
same,Activity,MCF7 [26],Dose-Dependent Effect
same,IC50,MCF7 [27],24.3 nM
same,Activity,MCF7 [28],42.87%
same,Activity,MCF7 [29],46.27%
same,inhibition,HMEC-1 [30],Active
same,inhibition,Tubulin (Homo sapiens) [31],Active
same,Activity,MCF7 [32],3.82%
same,Activity,MCF7 [33],17.8%
same,Activity,MCF7 [34],0.06%
same,Activity,MCF7 [35],8.89%
same,Activity,MCF7 [36],50.6%
